# Measurements: patent publication US9682158B2, “Therapy of malignant neoplasias” (priority 2005, dated 2017)
# “Also recorded” adds a separate entry of the source.
# Assays:
# [1] = test system: glioma, pancreas, prostate and breast cancer cells; assay: Cell survival after treatment with radiolabeled L-phenylalanines, further tumor cells; assay type: cell-based; conditions: in vitro
# Procedure: (§1) After development of a confluent lawn of cells, the cultures were exposed to 0.001-10 μCi/ml of the corresponding radiopharmaceutical for up to 48 hours at 37° C./5% CO2. In a parallel experiment, cells were irradiated using a 6-MeV linear accelerator with doses from 2 to 15 Gy for comparison of cell survival rate of both methods. In order to be able to observe the morphology of the glioma cells, the cells were grown on standard glass slides or in standard culture dishes. Then the medium was removed and the cells were fixed either in 70% ethanol for at least 30 min on ice for flow-cytometric analyses after staining or in 4% neutral buffered formalin for immunohistopathological analyse.
# (§2) Human tumor cells grown on standard glass slides were fixed in 4% neutral buffered formalin and stained with the Giemsa method. The cell number was calculated in 10 consecutive high power fields (×40).
# [2] = test system: human tumor cells, especially malignant gliomas; assay: Flow-cytometric analyses of stained cells after treatment (primary necrosis and apoptosis); assay type: cell-based; conditions: flow cytometry; compared with external irradiation up to 15 Gy
# Procedure: as §1
# glioma [3] = assay: Clinical studies with IPA-123 (SPECT imaging); assay type: in vivo, human; conditions: 250 MBq
# Procedure: IPA was prepared, as described in example 2. […] Patients were injected with 250 MBq IPA-123, and subsequently imaged at 30 min, 3 h and, where possible, 24 h post injection, using a triple head SPECT camera (Siemens Multi-SPECT III, Erlangen, Germany) with low energy high resolution (LEHR) collimator and iterative reconstruction for cerebral (FIG. 14) imaging. Whole body imaging (FIG. 15) was performed using a Hawkeye dual head SPECT camera (General Electrics Medical Systems, Uppsala, Sweden) with high energy collimator, and iterative reconstruction at 0 min, 1 h and 3 h after injection of 250 MBq IPA-123. SPECT images were acquired using 3-degree angular steps. During a 360° rotation 120 projections were recorded into a 128*128 matrix, with an acquisition time of 40 s per image. Images were reconstructed using manufacturer's software. Anatomical co-alignment with MRI data was performed using HERMES software for nuclear medicine (Nuclear Diagnostics, Stockholm, Sweden). Tumor uptake was visually assessed by two adequately trained, independent nuclear medicine physicians. In discordant cases, a consensus rating was agreed upon. 86% of patients with histologically confirmed tumor show IPA-123 uptake.
# glioma [4] = conditions: cited from earlier work
# glioma [5] = assay: Clinical study with IPA-124 (PET imaging); assay type: in vivo, human
# Procedure: IPA was prepared, as described in example 3. […] The patient was injected with 50 MBq IPA-124, and subsequently dynamically imaged at 40-80 min and at 6 days post injection using a dedicated PET camera (Siemens ECAT-ART Scanner, Siemens-CTI, Knoxville, Tenn., USA). SPECT images were acquired using 3-degree angular steps. During a 360° rotation 120 projections were recorded into a 128*128 matrix, with an acquisition time of 40 s per image. Images were reconstructed using manufacturer's software. Anatomical co-alignment with MRI data was performed using HERMES software for nuclear medicine (Nuclear Diagnostics, Stockholm, Sweden) (FIGS. 12a and b). Tumor uptake was visually assessed by two adequately trained, independent nuclear medicine physicians. The patient was operated on day 2 post injection. Post-operative images continue to show strong IPA uptake in projection to the resection margins corresponding to a large portion of tumor tissue which remained in situ. […] Post-operative images were semiquantitatively analysed. A region of interest (ROI) was drawn over the area of increased IPA-124 uptake and compared to a mirrored reference ROI in the contralateral healthy hemisphere using the median sagittal plane as mirror plane (FIG. 12c). Activity concentration in the remaining tumor tissue exceeded activity in the reference region by a factor of 8.86 after 6 days.
# [6] = physical half life of the radionuclide; cited from earlier work
# [7] = Clinical and histological safety observation of treated glioma rats; assay type: in vivo, rat
# Procedure: (§3) One million (10^6) C6 rat glioma cells or 10^6 primary human Tx3868, […], A1207, M059K and U373MG high-grade glioma cells were stereotactically implanted into the left frontal region of Wistar rats or RNU rats while under chloral hydrate anaesthesia as described previously. The animals were held in metabolic cages. […] For each cell line, 6 animals with radiologically (MRI or by gamma camera) confirmed brain tumor were randomly chosen as control animals, a second group of 15 animals were treated with 20 MBq of the radiolabeled L-phenylalanine in two fractions of 10 MBq each via a Teflon catheter in a tail vein 9 and 18 days after tumour implantation. While a third group of 15 rats were irradiated with 4-8 Gy. Survival time was calculated according to the Kaplan-Meier method. Surviving animals were sacrificed after 90 and 180 days. All rat brains were examined histologically after biopsy.
# At autopsy of the rats and mice, besides the brains, other organs were harvested including the heart, lung, liver, spleen, kidney, skin, and colon. The brains were cut in coronal slices of about 2-3 mm thickness. All tissues from the animals were fixed in 4% neutral buffered formalin and embedded in paraffin wax. Sections were stained with hematoxylin-eosin and Verhoeff-van Gieson and examined histopathologically.
# [8] = test system: T5135 primary human glioma cell line; assay: Cell survival rate after treatment with radiolabeled L-phenylalanines; assay type: cell-based; conditions: 24 hours exposure, 1 μCi/ml, compared to parallel grown cell cultures without exposure
# Procedure: (§4) Five human glioma cell lines, one rat glioma cell line, two human prostate cancer cell lines and one human breast cancer cell line were investigated. The human glioma cell lines Tx 3868 and T 5135 (from primary human glioblastoma multiforme), and the rat C6 glioma cells were provided by the Institute of Human Genetics, University of the Saarland (Homburg, Germany). The human high-grade glioma cells, designated as A1207, M059K and U373MG, the human prostate cancer cell lines PC3 and […], and the human breast cancer cell line MCF-07 (American Type Culture Collection, Rockville, Md.), were purchased commercially or provided by the oncological research laboratory of the University Medical Center of Saarland (Homburg, Germany). Cells were cultivated in RPMI-1640 medium or in Dulbecco's modified Eagle medium (sodium pyruvate-free, supplemented with […] and pyridoxine), respectively, supplemented with 10% (v/v) heat-inactivated foetal calf serum (FCS), penicillin (50 U/ml), streptomycin (50 μg/ml), and 50 μl insulin (PromoCell, Heidelberg, Germany). All cells lines were maintained in appropriate flasks in a humidified incubator (5% CO2) at 37° C. Before the experiment, subconfluent cell cultures were trypsinized with a solution of 0.05% trypsin containing 0.02% EDTA but without Ca^2+ and Mg^2+, and resuspended in fresh medium to various cell concentrations after counting by vital staining on a hemocytometer, depending upon the study. Cells were free of mycoplasms. Viability of the cells was >95%.
# (§5) After development of a confluent lawn of cells, the cultures were exposed to 0.001-10 μCi/ml of the corresponding radiopharmaceutical for up to 48 hours at 37° C./5% CO2. In a parallel experiment, cells were irradiated using a 6-MeV linear accelerator with doses from 2 to 15 Gy for comparison of cell survival rate of both methods. […]
# as §2
# [9] = test system: Tx 3868 primary human glioma cell line; assay: as above; assay type: cell-based
# Procedure: as §4, §5, §2
# C6 rat gliomas = assay: IPA-131 endoradiotherapy of orthotopic C6 rat gliomas; assay type: in vivo
# Procedure: […] Wistar rats and RNU rats were from Charles River (Sulzfeld, Germany). The C6 rat glioma model has been previously described in detail. Its biological behavior closely simulates that of human high-grade gliomas.
# as §3
# Magnetic resonance imaging was performed 9 days after tumour implantation (before drug administration) and after the second injection of radiolabeled phenylalanine at day 18 as well as possibly at the day of scarification, using a 2.4-Tesla small animal magnetic resonance tomograph (Brucker Biospec 2.4, Karlruhe, Germany). This system was equipped with a rat coil to hold the animal and transmit homogeneous signals. All rats were imaged while under chloral hydrate anaesthesia (250 mg/kg, i.m.). Multiple axial and coronal images (T1- and T2-weighted) were acquired for 20 min without contrast media. The parameters used were: T1-weighted (TR=100 msec, TE=6.5 msec, flip angle 30°, FOV=2×2 cm, 256×128×64 matrix) and T2-weighted (TR=500 msec, TE=17.5 msec, 1 acquisition, RARE factor 16, FOV=2×2 cm, 256×256×32 matrix, slap-thickness 16 mm).
# (§6) At autopsy of the rats and mice, besides the brains, other organs were harvested including the heart, lung, liver, spleen, kidney, skin, and colon. […]
# [10] = test system: human Tx3868 glioblastomas; assay: IPA-131 endoradiotherapy of orthotopic human Tx3868 glioblastomas; assay type: in vivo; conditions: dose 20 MBq, RNU rats
# Procedure: (§7) The first studies were carried out on in male Wistar rats for C6 rat glioma model and in RNU rats for human glioma models. Wistar rats and RNU rats were from Charles River (Sulzfeld, Germany). The C6 rat glioma model has been previously described in detail. Its biological behavior closely simulates that of human high-grade gliomas.
# as §3, §6
# [11] = test system: orthotopically implanted rat and human gliomas; assay: IPA-131 endoradiotherapy in rats with orthotopically implanted rat and human gliomas, Kaplan-Meier survival; assay type: in vivo
# Procedure: as §7, §3
# glioma [12] = assay: Clinical study with IPA-131 (SPECT imaging); assay type: in vivo, human; conditions: 100 MBq
# Procedure: IPA was prepared, as described in example 3. […] The patient was injected with 100 MBq IPA-131 and subsequently imaged at 30 min and at 26 h post injection using a Hawkeye dual head SPECT camera (General Electrics Medical Systems, Uppsala, Sweden) with high energy collimator, and iterative reconstruction for cerebral (FIGS. 13a and b) and whole body (FIGS. 13c and d) imaging. SPECT images were acquired using 3-degree angular steps. During a 360° rotation 120 projections were recorded into a 128*128 matrix, with an acquisition time of 40 s per image. Images were reconstructed using manufacturer's software. Tumor uptake was visually assessed by two adequately trained, independent nuclear medicine physicians.
# [13] = test system: human A1207 glioblastomas; assay: IPA-131 endoradiotherapy of orthotopic human A1207 glioblastomas; assay type: in vivo; conditions: dose 20 MBq, RNU rats
# Procedure: as §7, §3, §6
molecule,measurement,setting,value
"3,4-[^77Br]bromo-L-Phenylalanine [BrPA-77]",cell count / cell survival compared with IPA-131 results,[1],Identical results
same,induction of primary necrosis and apoptosis,[2],"dose dependent induction of primary necrosis and apoptosis, which was more significant than that caused by external irradiation, even with 15 Gy"
"3,4-[^211I]astatine-L-phenylalanine [AtPA-211]",cell count / cell survival compared with IPA-131 results,[1],Identical results
same,induction of primary necrosis and apoptosis,[2],"dose dependent induction of primary necrosis and apoptosis, which was more significant than that caused by external irradiation, even with 15 Gy"
"N[C@@H](Cc1ccc([123I])cc1)C(=O)O [IPA-123, 4-[^123I]iodo-L-phenylalanine]",patients with histologically confirmed tumor showing uptake,glioma [3]; visual assessment,86%
same,retention of the tracer in tumor,glioma [3]; patient with glioblastoma,at least 24 h
same,accumulation in gliomas,"glioma [4]; after intravenous administration, ref [14]",accumulates specifically in low and high grade gliomas with surprisingly marked retention in tumor cells
same,blood-brain barrier passage,"glioma [4]; after intravenous administration, refs [13, 14]",crosses the blood-brain barrier
same,accumulation in the normal cerebral parenchyma,"glioma [4]; refs [13, 14]",moderate and decreases rapidly with time
"N[C@@H](Cc1ccc([124I])cc1)C(=O)O [IPA-124, 4-[^124I]iodo-L-phenylalanine]",tumor uptake / targeting in glioma patient,"glioma [5]; 50 MBq, PET 40-80 min and 6 days post injection",retained in high activity concentrations by tumor tissue for prolonged periods; also recorded: Successful tumor targeting
same,tolerability,"glioma [5]; patient, 50 MBq",well tolerated
same,retention of tracer in glioma,"glioma [5]; patient, 50 MBq, PET",at least 6 days
same,"tumor activity relative to reference region (contralateral healthy tissue), factor","glioma [5]; post-operatively remaining tumor tissue, 6 days post injection of 50 MBq",8.86
same,half life,[6],101 h
"N[C@@H](Cc1ccc([131I])cc1)C(=O)O [IPA-131, 4-[^131I]iodo-L-phenylalanine]",seizures,[7]; treated animals,No seizures were observed
same,liver and kidney histomorphology,"[7]; treated animals, autopsy",did not show any histomorphological abnormality
same,adverse therapy-related events and toxic effects,"[7]; treated glioma rats, clinical observation",no adverse therapy-related events and no toxic effects were observed clinically
same,cell survival rate,[8],< 20%
same,cell survival rate,"[9]; 24 hours exposure, 1 μCi/ml, compared to parallel grown cell cultures without exposure",less than 22%
same,mode of cell death (cytological),[9]; primary human glioma cell lines after 24 hours exposure,apoptosis
same,Kaplan-Meier survival of treated animals group,"C6 rat gliomas; C6-glioma rats, 81 days after implantation, p=<0.05",significant longer survival
same,"tumor disappearance, intravital small animal MRI imaging","C6 rat gliomas; dose 20 MBq, RNU rats",subgaleal and intracerebral tumor disappearance
same,tumour on MRI,"C6 rat gliomas; surviving C6-glioma rats, 81 days after implantation",no tumour was demonstrable with MRI
same,metabolic and H & E staining of fresh-frozen tissue sections,[10],"metabolic normalisation, and histological tumor disappearance"
same,survival vs maximum tolerable external irradiation,"[11]; Kaplan-Meier analysis, 20 MBq vs external irradiation",significantly longer survival than those treated by maximum tolerable doses of external irradiation
same,survival time of treated rats vs control group,"[11]; all glioma models, 20 MBq i.v. in two fractions",significantly increased
same,induction of primary necrosis and apoptosis,[2],"dose dependent induction of primary necrosis and apoptosis, which was more significant than that caused by external irradiation, even with 15 Gy"
same,tumor uptake / targeting in glioma patient,glioma [12]; SPECT 30 min and 26 h post injection,not only taken up but also retained by glioma tissue; also recorded: Successful tumor targeting
same,tolerability,glioma [12]; patient,well tolerated
same,retention in tumor,"glioma [12]; patient, SPECT",at least 26 hours
same,metabolic and H & E staining of fresh-frozen tissue sections,[13],"metabolic normalisation, and histological tumor disappearance"
